# Target: T1, JAK3 (JH1 and JH2 domain) (Homo sapiens, UniProt P52333)
# T1 sequence (P52333 521-1111 limits assumed): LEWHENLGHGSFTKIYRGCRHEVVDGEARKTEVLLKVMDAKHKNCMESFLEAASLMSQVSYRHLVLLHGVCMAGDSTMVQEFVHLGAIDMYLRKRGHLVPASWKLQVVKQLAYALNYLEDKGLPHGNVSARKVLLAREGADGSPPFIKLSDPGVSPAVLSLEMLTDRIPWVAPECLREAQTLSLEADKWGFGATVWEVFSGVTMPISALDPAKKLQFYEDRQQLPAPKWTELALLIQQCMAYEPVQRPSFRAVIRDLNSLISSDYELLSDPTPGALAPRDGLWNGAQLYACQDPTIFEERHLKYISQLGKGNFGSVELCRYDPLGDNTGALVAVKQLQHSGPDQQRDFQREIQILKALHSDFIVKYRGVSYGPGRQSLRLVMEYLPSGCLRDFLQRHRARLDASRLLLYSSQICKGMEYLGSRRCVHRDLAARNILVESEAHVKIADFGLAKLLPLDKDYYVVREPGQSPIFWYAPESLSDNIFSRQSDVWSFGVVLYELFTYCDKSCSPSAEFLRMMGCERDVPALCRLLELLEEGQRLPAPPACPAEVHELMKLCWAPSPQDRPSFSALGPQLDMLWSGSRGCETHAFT
# Assay: JAK3 Kinase Assay (ELISA of peptide substrate phosphorylation)
# Format: biochemical
# Conditions: purified JAK3 enzyme, 10 μM ATP, biotinylated peptide substrate, 1 hour at room temperature
# Procedure, shortened: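 Sf21-baculovirus-expressed JAK3 (JH1+JH2), glutathione-bead purified, with biotinylated peptide substrate (in buffer containing 10 μM ATP) in HEPES pH 7.5/MgCl2/DTT, 1 h RT. Product was captured on Neutravidin, detected with HRP anti-phosphotyrosine (PY99)/TMB, OD 450/650 nm. Triplicate 16-point half-log series from 200 μM gave IC50; otherwise % inhibition at 1 μM.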
row,IC50,Structure (SMILES)
1,161 nM,"O=C1NCc2c1c1c3ccccc3n3c1c1c2c2ccccc2n1CC(O)(COC(=O)N1CCOCC1)C3 (stereo not drawn) [Cpd 138, 12,13-[2-hydroxy-2-(morpholin-4-yl-carbonyloxymethyl)-propan-1,3-yl]-6,7,12,13-tetrahydro-5-oxo-5H-indolo[2,3-a]pyrrolo[3,4-c]carbazole]"
2,655 nM,"O=C1NCc2c1c1c3ccccc3n3c1c1c2c2ccccc2n1CC(COC(=O)N1CCC(N2CCCC2)CC1)C3 (stereo not drawn) [Cpd 162, 12,13-{2-[(4-pyrrolidin-1-yl-piperidin-1-yl)carbonyloxymethyl]-propan-1,3-yl}-6,7,12,13-tetrahydro-5-oxo-5H-indolo[2,3-a]pyrrolo[3,4-c]carbazole]"
3,592 nM,"Cc1ncsc1/C=C/c1ccc2c(c1)c1c3c(c4c5ccccc5n5c4c1n2CC(CO)C5)CNC3=O (stereo not drawn) [Cpd 217, 3-[(2E)-2-(4-methyl-thiazol-5-yl)ethenyl]-12,13-(2-hydroxymethyl-propan-1,3-yl)-6,7,12,13-tetrahydro-5-oxo-5H-indolo[2,3-a]pyrrolo[3,4-c]carbazole]"
4,15 nM,"O=C1NCc2c1c1c3ccccc3n3c1c1c2c2ccccc2n1CC(CO)(CO)C3 [Cpd 27, 12,13-(2,2-bis-hydroxymethyl-propan-1,3-yl)-6,7,12,13-tetrahydro-5-oxo-5H-indolo[2,3-a]pyrrolo[3,4-c]carbazole]"
5,63 nM,"O=C1NC(=O)c2c1c1c3ccccc3n3c1c1c2c2ccccc2n1CC(O)(C(=O)NC1CCOC1=O)C(O)C3 (stereo not drawn) [Cpd 122, 12,13-{2-[(2-oxo-tetrahydro-furan-3-yl)carbamoyl]-2,3-dihydroxy-butan-1,4-yl}-12,13-dihydro-5,7-dioxo-6H-indolo[2,3-a]pyrrolo[3,4-c]carbazole]"
6,123 nM,"O=C1NCc2c1c1c3ccccc3n3c1c1c2c2ccccc2n1CC(COC(=O)N1CCN(c2ccc(O)cc2)CC1)C3 (stereo not drawn) [Cpd 158, 12,13-(2-{[4-(4-hydroxy-phenyl)piperazin-1-yl]carbonyloxymethyl}-propan-1,3-yl)-6,7,12,13-tetrahydro-5-oxo-5H-indolo[2,3-a]pyrrolo[3,4-c]carbazole]"
7,36 nM,"O=C1NC(=O)c2c1c1c3ccccc3n3c1c1c2c2ccccc2n1CC(O)(C(=O)NC(CO)CO)C(O)C3 (stereo not drawn) [Cpd 118, 12,13-{2-[(1,3-hydroxy-isopropyl)carbamoyl]-2,3-dihydroxy-butan-1,4-yl}-12,13-dihydro-5,7-dioxo-6H-indolo[2,3-a]pyrrolo[3,4-c]carbazole]"
8,> 200 nM,"CN(C)CCCN(CCCN(C)C)C(=O)OC1Cn2c3ccccc3c3c4c(c5c6ccccc6n(c5c32)CC1O)C(=O)NC4=O (stereo not drawn) [Cpd 109, 12,13-(2-{[N,N-bis-(3-dimethylamino-prop-1-yl)]carbamoyloxy}-3-hydroxy-butan-1,4-yl)-12,13-dihydro-5,7-dioxo-6H-indolo[2,3-a]pyrrolo[3,4-c]carbazole]"
9,15 nM,"NS(=O)(=O)c1ccc(CCNC(=O)OC2Cn3c4ccccc4c4c5c(c6c7ccccc7n(c6c43)CC2O)C(=O)NC5=O)cc1 (stereo not drawn) [Cpd 105, 12,13-(2-{[2-(4-sulfonylamino-phenyl)ethyl]carbamoyloxy}-3-hydroxy-butan-1,4-yl)-12,13-dihydro-5,7-dioxo-6H-indolo[2,3-a]pyrrolo[3,4-c]carbazole]"
10,48 nM,"O=C1NC(=O)c2c1c1c3ccccc3n3c1c1c2c2ccccc2n1CC(O)(C(=O)NCCCN1CCCC1=O)C(O)C3 (stereo not drawn) [Cpd 127, 12,13-(2-{[3-(2-oxo-pyrrolidin-1-yl)prop-1-yl]carbamoyl}-2,3-dihydroxy-butan-1,4-yl)-12,13-dihydro-5,7-dioxo-6H-indolo[2,3-a]pyrrolo[3,4-c]carbazole]"
11,35 nM,"O=C(NC1CCNCC1)OC1CCn2c3ccccc3c3c4c(c5c6ccccc6n(c5c32)C1)C(=O)NC4=O (stereo not drawn) [Cpd 75, 12,13-[2-(piperidin-4-yl-carbamoyloxy)-butan-1,4-yl]-12,13-dihydro-5,7-dioxo-6H-indolo[2,3-a]pyrrolo[3,4-c]carbazole]"
12,123 nM,"COCCNC(=O)OCC1(O)Cn2c3ccccc3c3c4c(c5c6ccccc6n(c5c32)C1)C(=O)NC4 (stereo not drawn) [Cpd 136, 12,13-{2-hydroxy-2-[(2-methoxy-ethyl)carbamoyloxymethyl]-propan-1,3-yl}-6,7,12,13-tetrahydro-5-oxo-5H-indolo[2,3-a]pyrrolo[3,4-c]carbazole]"
13,8 nM,"O=C1NCc2c1c1c3cc(CO)ccc3n3c1c1c2c2cc(CO)ccc2n1CC(CO)C3 (stereo not drawn) [Cpd 215, 3,9-bis-(hydroxymethyl)-12,13-(2-hydroxymethyl-propan-1,3-yl)-6,7,12,13-tetrahydro-5-oxo-5H-indolo[2,3-a]pyrrolo[3,4-c]carbazole]"
14,> 400 nM,"CC(C)(C)NC(=O)OC1CCn2c3ccccc3c3c4c(c5c6ccccc6n(c5c32)C1)C(=O)NC4=O (stereo not drawn) [Cpd 40, 12,13-[2-(t-butylcarbamoyloxy)-butan-1,4-yl]-12,13-dihydro-5,7-dioxo-6H-indolo[2,3-a]pyrrolo[3,4-c]carbazole]"
15,29 nM,"O=C1NCc2c1c1c3ccccc3n3c1c1c2c2ccccc2n1CC(O)(CO)C3 (stereo not drawn) [Cpd 25, 12,13-(2-hydroxy-2-hydroxymethyl-propan-1,3-yl)-6,7,12,13-tetrahydro-5-oxo-5H-indolo[2,3-a]pyrrolo[3,4-c]carbazole]"
16,1100 nM,"O=C1NC(=O)c2c1c1c3ccccc3n3c1c1c2c2ccccc2n1CC(OC(=O)N1CCN(C2CCCCC2)CC1)C(O)C3 (stereo not drawn) [Cpd 101, 12,13-{2-[(4-cyclohexyl-piperazin-1-yl)carbonyloxy]-3-hydroxy-butan-1,4-yl}-12,13-dihydro-5,7-dioxo-6H-indolo[2,3-a]pyrrolo[3,4-c]carbazole]"
17,73 nM,"COc1ccccc1CNC(=O)OCC1Cn2c3ccccc3c3c4c(c5c6ccccc6n(c5c32)C1)C(=O)NC4 (stereo not drawn) [Cpd 169, 12,13-{2-[(2-methoxy-benzyl)carbamoyloxymethyl]-propan-1,3-yl}-6,7,12,13-tetrahydro-5-oxo-5H-indolo[2,3-a]pyrrolo[3,4-c]carbazole]"
18,1000 nM,"O=C1NC(=O)c2c1c1c3ccccc3n3c1c1c2c2ccccc2n1CC(OC(=O)N1CCN(Cc2ccc4c(c2)OCO4)CC1)CC3 (stereo not drawn) [Cpd 54, 12,13-(2-{[4-(benzo[1,3]dioxol-5-yl-methyl)piperazin-1-yl]carbonyloxy}-butan-1,4-yl)-12,13-dihydro-5,7-dioxo-6H-indolo[2,3-a]pyrrolo[3,4-c]carbazole]"
19,32 nM,"O=C1NCc2c1c1c3ccccc3n3c1c1c2c2ccccc2n1C[C@H](O)[C@@H](O)C3 [Cpd 18, 12,13-[(2S,3S)-dihydroxy-butan-1,4-yl]-6,7,12,13-tetrahydro-5-oxo-5H-indolo[2,3-a]pyrrolo[3,4-c]carbazole]"
20,36 nM,"O=C1NC(=O)c2c1c1c3ccccc3n3c1c1c2c2ccccc2n1CC(OC(=O)N1CCN(c2ccccc2)CC1)CC3 (stereo not drawn) [Cpd 64, 12,13-{2-[(4-phenyl-piperazin-1-yl)carbonyloxy]-butan-1,4-yl}-12,13-dihydro-5,7-dioxo-6H-indolo[2,3-a]pyrrolo[3,4-c]carbazole]"
21,105 nM,"CC1(C)O[C@H]2Cn3c4ccccc4c4c5c(c6c7ccccc7n(c6c43)C[C@@H]2O1)C(=O)NC5 [Cpd 16, 12,13-[(4S,5S)-2,2-dimethyl-[1,3]dioxolo[4,5-b]butan-1,4-yl]-6,7,12,13-tetrahydro-5-oxo-5H-indolo[2,3-a]pyrrolo[3,4-c]carbazole]"
22,173 nM,"CN(C)C1CCN(C(=O)OC2Cn3c4ccccc4c4c5c(c6c7ccccc7n(c6c43)CC2O)C(=O)NC5=O)C1 (stereo not drawn) [Cpd 100, 12,13-{2-[(3-dimethyl-pyrrolidin-1-yl)carbonyloxy]-3-hydroxy-butan-1,4-yl}-12,13-dihydro-5,7-dioxo-6H-indolo[2,3-a]pyrrolo[3,4-c]carbazole]"
23,3000 nM,"O=C(NC1CCN(Cc2ccccc2)CC1)OC1CCn2c3ccccc3c3c4c(c5c6ccccc6n(c5c32)CC1)C(=O)NC4 (stereo not drawn) [Cpd 187, 12,13-{3-[(1-benzyl-piperidin-4-yl)carbamoyloxy]-pentan-1,5-yl}-6,7,12,13-tetrahydro-5-oxo-5H-indolo[2,3-a]pyrrolo[3,4-c]carbazole]"
24,171 nM,"O=C1NCc2c1c1c3cc(Br)ccc3n3c1c1c2c2ccccc2n1C/C=C\C3 [Cpd 6, 3-bromo-12,13-(but-2-en-1,4-yl)-6,7,12,13-tetrahydro-5-oxo-5H-indolo[2,3-a]pyrrolol [3,4-c]carbazole]"
25,1270 nM,"COc1ccc(CCNC(=O)OC2CCn3c4ccccc4c4c5c(c6c7ccccc7n(c6c43)CC2)C(=O)NC5)cc1OC (stereo not drawn) [Cpd 183, 12,13-(3-{[2-(3,4-dimethoxy-phenyl)ethyl]carbamoyloxy}-pentan-1,5-yl)-6,7,12,13-tetrahydro-5-oxo-5H-indolo[2,3-a]pyrrolo[3,4-c]carbazole]"
26,8 nM,O=C1NC(=O)c2c1c1c3ccccc3n3c1c1c2c2ccccc2n1CC(O)CCC3 (stereo not drawn) [Cpd 8]
27,433 nM,"CN(C)CCCN1CCN(C(=O)OC2CCn3c4ccccc4c4c5c(c6c7ccccc7n(c6c43)C2)C(=O)NC5=O)CC1 (stereo not drawn) [Cpd 68, 12,13-(2-{[4-(3-dimethylamino-prop-1-yl)piperazin-1-yl]carbonyloxy}-butan-1,4-yl)-12,13-dihydro-5,7-dioxo-6H-indolo[2,3-a]pyrrolo[3,4-c]carbazole]"

# From patent US20070249590A1, “Substituted indolo[2,3-a]pyrrolo[3,4-c]carbazole compounds useful in treating kinase disorders” (priority 2005, published 2007)
